One compound from US9675652B2, “Compositions and methods to relieve chronic diseases symptoms” (priority 2011, dated 2017) can be followed below.

The series relates to Hep G2.2.15 cells. The series can be described thus: Cell viability by MTT, Hep G2.2.15 cells. The class given is cell-based, human. On the procedure:
The Hep G2.2.15 cells were seeded at 3×10^4 cells/well into 96-well culture plates and incubated at 37° C. in 5% CO2 overnight. After 3 to 4 days, the confluent cultures were cultured at 37° C. for another 3 to 5 days for HBV surface antigen (HBsAg) and HBV e-antigen (HBeAg) induction. Various concentrations of test articles including the positive control substance were then added during the 72 hrs induction period. The cultured media were harvested by centrifugation and the levels of HBsAg and HBeAg were analyzed with commercial enzyme-linked immunosorbant assay (ELISA) kits for HBsAg qualitative testing (General Biologicals Corp., SURASE B-96 (TMB)) and that for HBeAg qualitative testing (General Biologicals Corp., EASE BN-96 (TMB)), respectively. The activity expressed in terms of the efficiency of antigen secretion in percentage (hereinafter referred to as “relative activity”) was calculated with the equation Relative activity (%)=The ratio of the amount of antigen in the cultured medium with treatment to that without treatment×100.
Cell viability was assayed by the MTT method.

With `CC(C)(C)C(=O)OCOP(=O)(COCCn1cnc2c(N)ncnc21)OCOC(=O)C(C)(C)C` [Adefovir, Adefovir dipivoxil], the “MTT (+) drug/(−) drug (Ratio), cytotoxicity” value is, setting by setting: (0.2 uM) 0.961; (1 uM) 0.953.
